Laboratory results taken from ChEMBL document CHEMBL4715814, “Design, synthesis and biological activity evaluation of novel 4-subtituted 2-naphthamide derivatives as AcrB inhibitors” (2018).
The source made the active and inactive calls. No cut-off for these calls is given here.

Columns and labels:
Escherichia coli [1] = test: Potentiation of TPP-induced antibacterial activity against wild type Escherichia coli BW25113 assessed as TPP MIC at 256 ug/ml incubated for 18 hrs under aerobic condition by checkerboard titration assay (reference value: 1024 ug/ml); format: functional; details: dose 256 µg/ml
Escherichia coli [2] = test: Potentiation of erythromycin-induced antibacterial activity against wild type Escherichia coli BW25113 assessed as erythromycin MIC at 512 ug/ml incubated for 18 hrs under aerobic condition by checkerboard titration assay (reference value: 128 ug/ml); format: functional; details: dose 512 µg/ml
Escherichia coli [3] = test: Potentiation of rifampicin-induced antibacterial activity against wild type Escherichia coli BW25113 assessed as rifampicin MIC at 256 ug/ml incubated for 18 hrs under aerobic condition by checkerboard titration assay (reference value: 16 ug/ml); format: functional; details: dose 256 µg/ml
Escherichia coli [4] = test: Potentiation of chloramphenicol-induced antibacterial activity against wild type Escherichia coli BW25113 assessed as chloramphenicol MIC at 256 ug/ml incubated for 18 hrs under aerobic condition by checkerboard titration assay (reference value: 16 ug/ml); format: functional; details: dose 256 µg/ml
Escherichia coli [5] = test: Potentiation of TPP-induced antibacterial activity against wild type Escherichia coli BW25113 assessed as TPP MIC at 512 ug/ml incubated for 18 hrs under aerobic condition by checkerboard titration assay (reference value: 1024 ug/ml); format: functional; details: dose 512 µg/ml
Escherichia coli [6] = test: Antibacterial activity against Wild type Escherichia coli BW25113 assessed as inhibition of AcrB efflux pump by mesuring the glucose-induced nile red efflux at 100 uM preincubated with CCCP for 15 mins followed by compound addition after 15 mins nile red added and incubated for 3 hrs in shaker by fluorimetric analysis; format: functional, organism-based; details: time 195.0 min
Escherichia coli [7] = test: Potentiation of chloramphenicol-induced antibacterial activity against wild type Escherichia coli BW25113 assessed as chloramphenicol MIC at 512 ug/ml incubated for 18 hrs under aerobic condition by checkerboard titration assay (reference value: 16 ug/ml); format: functional; details: dose 512 µg/ml
Escherichia coli [8] = test: Potentiation of erythromycin-induced antibacterial activity against AcrB deficient Escherichia coli BW25113 assessed as erythromycin MIC at 512 ug/ml incubated for 18 hrs under aerobic condition by checkerboard titration assay (reference value: 32 ug/ml); format: functional; details: dose 512 µg/ml
Escherichia coli [9] = test: Potentiation of chloramphenicol-induced antibacterial activity against AcrB deficient Escherichia coli BW25113 assessed as chloramphenicol MIC at 512 ug/ml incubated for 18 hrs under aerobic condition by checkerboard titration assay (reference value: 2 ug/ml); format: functional; details: dose 512 µg/ml
Escherichia coli [10] = test: Potentiation of TPP-induced antibacterial activity against AcrB deficient Escherichia coli BW25113 assessed as TPP MIC at 512 ug/ml incubated for 18 hrs under aerobic condition by checkerboard titration assay (reference value: 256 ug/ml); format: functional; details: dose 512 µg/ml
Escherichia coli [11] = test: Potentiation of erythromycin-induced antibacterial activity against wild type Escherichia coli BW25113 assessed as erythromycin MIC at 256 ug/ml incubated for 18 hrs under aerobic condition by checkerboard titration assay (reference value: 128 ug/ml); format: functional; details: dose 256 µg/ml
Cell membrane [12] = test: Disruption of inner membrane potential in wild type Escherichia coli BW25113 at 512 ug/ml preincubated for 10 mins followed by glucose stimulation and CCCP addition by DiOC2 probe based fluorimetric analysis; format: subcellular; details: dose 512.0 µg/ml
Escherichia coli [13] = test: Potentiation of erythromycin-induced antibacterial activity against wild type Escherichia coli BW25113 assessed as fold reduction in erythromycin MIC at 128 ug/ml incubated for 18 hrs under aerobic condition by checkerboard titration assay relative to erythromycin MIC alone; format: functional; details: dose 128 µg/ml
Escherichia coli [14] = test: Potentiation of chloramphenicol-induced antibacterial activity against wild type Escherichia coli BW25113 assessed as fold reduction in chloramphenicol MIC at 128 ug/ml incubated for 18 hrs under aerobic condition by checkerboard titration assay relative to chloramphenicol MIC alone; format: functional; details: dose 128 µg/ml
Escherichia coli [15] = test: Potentiation of chloramphenicol-induced antibacterial activity against AcrB deficient Escherichia coli BW25113 assessed as chloramphenicol MIC at 128 ug/ml incubated for 18 hrs under aerobic condition by checkerboard titration assay (reference value: 2 ug/ml); format: functional; details: dose 128 µg/ml
Escherichia coli [16] = test: Antibacterial activity against Wild type Escherichia coli BW25113 assessed as inhibition of AcrB efflux pump by mesuring the glucose-induced nile red efflux at 200 uM preincubated with CCCP for 15 mins followed by compound addition after 15 mins nile red added and incubated for 3 hrs in shaker by fluorimetric analysis; format: functional, organism-based; details: time 195.0 min
Escherichia coli [17] = test: Potentiation of TPP-induced antibacterial activity against AcrB deficient Escherichia coli BW25113 assessed as TPP MIC at 128 ug/ml incubated for 18 hrs under aerobic condition by checkerboard titration assay (reference value: 256 ug/ml); format: functional; details: dose 128 µg/ml
Escherichia coli [18] = test: Potentiation of TPP-induced antibacterial activity against wild type Escherichia coli BW25113 assessed as TPP MIC at 128 ug/ml incubated for 18 hrs under aerobic condition by checkerboard titration assay (reference value: 1024 ug/ml); format: functional; details: dose 128 µg/ml
Escherichia coli [19] = test: Potentiation of erythromycin-induced antibacterial activity against wild type Escherichia coli BW25113 assessed as erythromycin MIC at 128 ug/ml incubated for 18 hrs under aerobic condition by checkerboard titration assay (reference value: 128 ug/ml); format: functional; details: dose 128 µg/ml
Escherichia coli [20] = test: Potentiation of chloramphenicol-induced antibacterial activity against wild type Escherichia coli BW25113 assessed as fold reduction in chloramphenicol MIC at 256 ug/ml incubated for 18 hrs under aerobic condition by checkerboard titration assay relative to chloramphenicol MIC alone; format: functional; details: dose 256 µg/ml
Cell membrane [21] = test: Induction of outer membrane permeabilization in wild type Escherichia coli BW25113 assessed as increase in nitrocefin hydrolysis at 512 ug/ml measured for 30 mins in presence of CCCP by spectrophotometry analysis; format: subcellular; details: dose 512.0 µg/ml
Escherichia coli [22] = test: Potentiation of erythromycin-induced antibacterial activity against AcrB deficient Escherichia coli BW25113 assessed as erythromycin MIC at 128 ug/ml incubated for 18 hrs under aerobic condition by checkerboard titration assay (reference value: 32 ug/ml); format: functional; details: dose 128 µg/ml
Escherichia coli [23] = test: Potentiation of chloramphenicol-induced antibacterial activity against wild type Escherichia coli BW25113 assessed as chloramphenicol MIC at 128 ug/ml incubated for 18 hrs under aerobic condition by checkerboard titration assay (reference value: 16 ug/ml); format: functional; details: dose 128 µg/ml
Escherichia coli [24] = test: Potentiation of rifampicin-induced antibacterial activity against wild type Escherichia coli BW25113 assessed as rifampicin MIC at 128 ug/ml incubated for 18 hrs under aerobic condition by checkerboard titration assay (reference value: 16 ug/ml); format: functional; details: dose 128 µg/ml
Escherichia coli [25] = test: Potentiation of TPP-induced antibacterial activity against AcrB deficient Escherichia coli BW25113 assessed as TPP MIC at 256 ug/ml incubated for 18 hrs under aerobic condition by checkerboard titration assay (reference value: 256 ug/ml); format: functional; details: dose 256 µg/ml
Escherichia coli [26] = test: Antibacterial activity against Wild type Escherichia coli BW25113 assessed as inhibition of AcrB efflux pump by mesuring the glucose-induced nile red efflux at 500 uM preincubated with CCCP for 15 mins followed by compound addition after 15 mins nile red added and incubated for 3 hrs in shaker by fluorimetric analysis; format: functional, organism-based; details: time 195.0 min
Escherichia coli [27] = test: Potentiation of chloramphenicol-induced antibacterial activity against AcrB deficient Escherichia coli BW25113 assessed as chloramphenicol MIC at 256 ug/ml incubated for 18 hrs under aerobic condition by checkerboard titration assay (reference value: 2 ug/ml); format: functional; details: dose 256 µg/ml
Escherichia coli [28] = test: Potentiation of erythromycin-induced antibacterial activity against AcrB deficient Escherichia coli BW25113 assessed as erythromycin MIC at 256 ug/ml incubated for 18 hrs under aerobic condition by checkerboard titration assay (reference value: 32 ug/ml); format: functional; details: dose 256 µg/ml
Escherichia coli [29] = test: Potentiation of TPP-induced antibacterial activity against wild type Escherichia coli BW25113 assessed as fold reduction in TPP MIC at 256 ug/ml incubated for 18 hrs under aerobic condition by checkerboard titration assay relative to TPP MIC alone; format: functional; details: dose 256 µg/ml
Escherichia coli [30] = test: Antibacterial activity against wild type Escherichia coli BW25113 assessed as inhibition of bacterial growth at 256 ug/ml after 18 hrs by microtitre broth dilution assay; format: functional, organism-based; details: dose 256.0 µg/ml
Escherichia coli [31] = test: Antibacterial activity against AcrB deficient Escherichia coli BW25113 assessed as inhibition of bacterial growth at 256 ug/ml after 18 hrs by microtitre broth dilution assay; format: functional, organism-based; details: dose 256.0 µg/ml

Row | SMILES | MIC (Escherichia coli [1]) | MIC (Escherichia coli [3]) | MIC (Escherichia coli [4]) | Activity (Escherichia coli [6]) | MIC (Escherichia coli [11]) | Activity (Cell membrane [12]) | fold change (FC) (Escherichia coli [13]) | fold change (FC) (Escherichia coli [14]) | MIC (Escherichia coli [15]) | MIC (Escherichia coli [17]) | MIC (Escherichia coli [18]) | MIC (Escherichia coli [19]) | fold change (FC) (Escherichia coli [20]) | Activity (Cell membrane [21]) | MIC (Escherichia coli [22]) | MIC (Escherichia coli [23]) | MIC (Escherichia coli [24]) | MIC (Escherichia coli [25]) | MIC (Escherichia coli [27]) | MIC (Escherichia coli [28]) | other results
1 | O=C(NC1CCCCC1)c1cc(OCc2ccccc2)c2ccccc2c1 | 1020 µg/mL | 16 µg/mL | 16 µg/mL | Active | 64 µg/mL | – | – | – | – | – | – | – | – | – | – | – | – | – | – | – | MIC (Escherichia coli [2]): 32 µg/mL; MIC (Escherichia coli [5]): 1020 µg/mL; MIC (Escherichia coli [7]): 16 µg/mL; MIC (Escherichia coli [8]): 32 µg/mL; MIC (Escherichia coli [9]): 2 µg/mL; MIC (Escherichia coli [10]): 256 µg/mL
2 | CC(C)CCOc1cc(C(=O)NC2CCCCC2)cc2ccccc12 | – | – | – | – | – | inactive | 8 | 8 | 2 µg/mL | 256 µg/mL | 1020 µg/mL | 16 µg/mL | 8 | inactive | 32 µg/mL | 2 µg/mL | 16 µg/mL | – | – | – | Activity (Escherichia coli [16]): Active
3 | NC(=O)c1cc(OCCNCc2ccc(O)cc2)c2ccccc2c1 | 256 µg/mL | 8 µg/mL | 4 µg/mL | – | 128 µg/mL | inactive | – | – | – | – | 1020 µg/mL | 128 µg/mL | 4 | inactive | – | 8 µg/mL | 8 µg/mL | 256 µg/mL | 2 µg/mL | 32 µg/mL | Activity (Escherichia coli [26]): inactive; fold change (FC) (Escherichia coli [29]): 4
4 | CCCNC(=O)c1cc(OCCC(C)C)c2ccccc2c1 | 1020 µg/mL | 4 µg/mL | 4 µg/mL | – | 16 µg/mL | – | 4 | 4 | 2 µg/mL | 256 µg/mL | 1020 µg/mL | 32 µg/mL | – | inactive | 32 µg/mL | 16 µg/mL | 16 µg/mL | 256 µg/mL | 1 µg/mL | 16 µg/mL | –
5 | O=C(NCc1ccco1)c1cc(OCc2ccccc2)c2ccccc2c1 | 256 µg/mL | 4 µg/mL | 2 µg/mL | Active | 128 µg/mL | Active | – | – | – | – | 1020 µg/mL | 128 µg/mL | 8 | inactive | – | 16 µg/mL | 16 µg/mL | – | 2 µg/mL | – | –
6 | O=C(NCc1ccccc1Cl)c1cc(OCc2ccccc2)c2ccccc2c1 | 256 µg/mL | 4 µg/mL | 4 µg/mL | – | 64 µg/mL | Active | – | – | – | – | 1020 µg/mL | 128 µg/mL | – | Active | – | 16 µg/mL | 16 µg/mL | 256 µg/mL | 2 µg/mL | 32 µg/mL | Activity (Escherichia coli [26]): Active; fold change (FC) (Escherichia coli [29]): 4
7 | NC(=O)c1cc(OCCNCc2ccco2)c2ccccc2c1 | 512 µg/mL | 16 µg/mL | 16 µg/mL | – | 128 µg/mL | inactive | – | – | – | – | 1020 µg/mL | 128 µg/mL | – | Active | – | 16 µg/mL | 16 µg/mL | 256 µg/mL | 1 µg/mL | 16 µg/mL | Activity (Escherichia coli [30]): inactive; Activity (Escherichia coli [31]): Active
8 | NC(=O)c1cc(OCCNC2CCCCC2)c2ccccc2c1 | – | – | – | Active | – | inactive | 8 | 8 | 2 µg/mL | 256 µg/mL | 1020 µg/mL | 16 µg/mL | – | Active | 16 µg/mL | 4 µg/mL | 8 µg/mL | 128 µg/mL | 1 µg/mL | 8 µg/mL | Activity (Escherichia coli [30]): Active; Activity (Escherichia coli [31]): Active
9 | O=C(NCc1ccccc1)c1cc(OCc2ccccc2)c2ccccc2c1 | 1020 µg/mL | 16 µg/mL | 16 µg/mL | – | 128 µg/mL | – | – | – | – | – | – | – | – | – | – | – | – | – | – | – | MIC (Escherichia coli [2]): 64 µg/mL; MIC (Escherichia coli [5]): 1020 µg/mL; MIC (Escherichia coli [7]): 16 µg/mL; MIC (Escherichia coli [8]): 32 µg/mL; MIC (Escherichia coli [10]): 256 µg/mL
